Assay results published in US4177269A, “Novel 17-esters of 17α-hydroxy gestogens, compositions containing such compounds, processes for their preparation and methods of treatment therewith” (Aktiebolaget Leo, priority 1976, dated 1979).

The compounds below were run on Hepatome AH 130 (assay: Hepatome AH 130 tumour growth inhibition in rats). Details: one i.p. injection, result in words.
Assay type: in vivo, Sprague-Dawley rats
Text: LD50 is the dose that causes a 50 percent lethality of the animals, and ED50 is the dose that causes a 50 percent reduction of tumour size.
(§1) The experimental design and the interpretation of the results are in accordance with the standards set by the CCNSC (Cancer Chemotherpy Reports, January 1959 and December 1962).
Experimental animals: Sprague-Dawley rats.
Tumour implant: 5 × 10^6 tumour cells i.p.
(§2) Therapy: One injection i.p. on the day following implanta-
(§3) Termination: The animals are killed on the 8th day.
Evaluation: Weights of tumours of test animals are compared
with those of control animals.
With CC(=O)[C@@]1(OC(=O)COC(=O)CCOc2ccc(N(CCCl)CCCl)cc2)CC[C@H]2[C@@H]3CCC4=CC(=O)CC[C@]4(C)[C@H]3CC[C@@]21C [3:26, 17α-[3-(4-(N,N-bis(2-chloroethyl)amino)phenoxy)propionyloxyacetoxy]pregn-4-ene-3,20-dione] the antitumour activity was “exhibit antitumour activity”.
In the case of CC(=O)[C@@]1(OC(=O)COC(=O)Cc2ccc(N(CCCl)CCCl)cc2)CC[C@H]2[C@@H]3C=C(C)C4=CC(=O)CC[C@]4(C)[C@H]3CC[C@@]21C [3:17, 17α-[4-(N,N-bis(2-chloroethyl)amino)phenylacetoxyacetoxy]-6-methylpregna-4,6-diene-3,20-dione], the antitumour activity is reported as “exhibit antitumour activity”.
CC(=O)[C@@]1(OC(=O)CCCOC(=O)CCCc2ccc(N(CCCl)CCCl)cc2)CC[C@H]2[C@@H]3C=C(Cl)C4=CC(=O)[C@@H]5C[C@@H]5[C@]4(C)[C@H]3CC[C@@]21C [3:24, 6-chloro-17α-[4-(4-(4-(N,N-bis(2-chloroethyl)amino)phenyl)butanoyloxy)butanoyloxy]-1α,2α-methylenepregna-4,6-diene-3,20-dione] was tested, and the antitumour activity was “exhibit antitumour activity”.
For C=C1C[C@H]2[C@@H]3C=C(Cl)C4=CC(=O)CC[C@]4(C)[C@H]3CC[C@]2(C)[C@@]1(OC(=O)COC(=O)Nc1ccc(N(CCCl)CCCl)cc1OC)C(C)=O [5:2, 6-chloro-17α-/4-(N,N-bis(2-chloroethyl)amino)-2-methoxyphenylcarbamoyloxyacetoxy/-16-methylenepregna-4,6-diene-3,20-dione], the antitumour activity was “exhibit antitumour activity”.
In the case of CC(=O)[C@@]1(OC(=O)CCCNC(=O)c2ccc(C)c(N(CCCl)CCCl)c2)CC[C@H]2[C@@H]3CCC4=CC(=O)CC[C@]4(C)[C@H]3CC[C@@]21C [6:4], the antitumour activity is reported as “exhibit antitumour activity”.
For CC(=O)[C@@]1(OC(=O)CCCNC(=O)C(C)(C)c2ccc(N(CCCl)CCCl)cc2)CC[C@H]2[C@@H]3CCC4=CC(=O)CC[C@@H]4[C@H]3CC[C@@]21C [6:2, 17α-/4-(2-(4-(N,N-bis(2-chloroethyl)amino)phenyl)-2-methylpropanoylamino)butyanoyloxy/-19-norpregn-4-ene-3,20-dione], the antitumour activity was “exhibit antitumour activity”.
With CC(=O)N[C@@H](Cc1ccc(N(CCCl)CCCl)cc1)C(=O)OCCCC(=O)O[C@]1(C(C)=O)CC[C@H]2[C@@H]3CCC4=CC(=O)CC[C@]4(C)[C@H]3CC[C@@]21C [3:15, 17-[4-((2S)-2-acetamido-3-(4-(N,N-bis(2-chloroethyl)amino)phenyl)propanoyloxy)butanoyloxy]pregn-4-ene-3,20-dione] the antitumour activity was “exhibit antitumour activity”.
For CC(=O)[C@@]1(OC(=O)CCCCOC(=O)C(N)Cc2ccc(N(CCCl)CCCl)cc2)CC[C@H]2[C@@H]3C[C@H](F)C4=CC(=O)CC[C@]4(C)[C@H]3CC[C@@]21C (stereo partly drawn) [3:10, 17α-/5-(2-amino-3-(4-(N,N-bis(2-chloroethyl)amino)phenyl)propanoyloxy)pentanoyloxy/-6α-fluoropregn-4-ene-3,20-dione], the antitumour activity was “exhibit antitumour activity”.
CC(=O)[C@@]1(OC(=O)COC(=O)[C@@H](N)Cc2cccc(N(CCCl)CCCl)c2)CC[C@H]2[C@@H]3CCC4=CC(=O)CC[C@]4(C)[C@H]3CC[C@@]21C [3:19, 17-[(2S)-2-amino-3-(3-(N,N-bis(2-chloroethyl)amino)phenyl)propanoyloxyacetoxy]pregn-4-ene-3,20-dione] was tested, and the antitumour activity was “exhibit antitumour activity”.
With CC(=O)[C@@]1(OC(=O)CCCOC(=O)[C@@H](N)Cc2ccc(N(CCCl)CCCl)cc2)CC[C@H]2[C@@H]3CCC4=CC(=O)CC[C@]4(C)[C@H]3CC[C@@]21C [3:13, 17-[4-((2S)-2-amino-3-(4-(N,N-bis(2-chloroethyl)amino)phenyl)propanoyloxy)butanoyloxy]pregn-4-ene-3,20-dione] the antitumour activity was “exhibit antitumour activity”.
For CC(=O)[C@@]1(OC(=O)C(C)OC(=O)/C=C/c2ccccc2N(CCCl)CCCl)CC[C@H]2[C@@H]3C=C(C)C4=CC(=O)CC[C@]4(C)[C@H]3CC[C@@]21C (stereo partly drawn) [3:9, 17α-/2-((2E)-3-(2-(N,N-bis(2-chloroethyl)amino)phenyl)propenoyloxy)propanoyloxy/-6-methylpregna-4,6-diene-3,20-dione], the antitumour activity was “exhibit antitumour activity”.
For CC(=O)[C@@]1(OC(=O)C(C)OC(=O)CCCCc2ccc(N(CCCl)CCCl)cc2)CC[C@H]2[C@@H]3C=C(Cl)C4=CC(=O)CC[C@]4(C)[C@H]3CC[C@@]21C (stereo partly drawn) [3:8, 6-chloro-17α-/2-(5-(4-(N,N-bis(2-chloroethyl)amino)phenyl)pentanoyloxy)propanoyloxy/pregna-4,6-diene-3,20-dione], the antitumour activity was “exhibit antitumour activity”.
With CC(=O)[C@@]1(OC(=O)COC(=O)[C@@H](N)Cc2ccccc2N(CCCl)CCCl)CC[C@H]2[C@@H]3CCC4=CC(=O)CC[C@]4(C)[C@H]3CC[C@@]21C [3:20, 17-[(2S)-2-amino-3-(2-(N,N-bis(2-chloroethyl)amino)phenyl)propanoyloxyacetoxy]pregn-4-ene-3,20-dione] the antitumour activity was “exhibit antitumour activity”.
CC(=O)[C@@]1(OC(=O)CCCCNC(=O)c2ccc(C)c(N(CCBr)CCBr)c2)CC[C@H]2[C@@H]3C[C@H](F)C4=CC(=O)CC[C@]4(C)[C@H]3CC[C@@]21C [6:3, 17α-/5-(3-(N,N-bis(2-bromoethyl)amino)-4-methylbenzoylamino)pentanoyloxy/-6α-fluoropregn-4-ene-3,20-dione] was tested, and the antitumour activity was “exhibit antitumour activity”.
In the case of CC(=O)[C@@]1(OC(=O)CCCOC(=O)c2ccc(C)c(N(CCCl)CCCl)c2)CC[C@H]2[C@@H]3C=C(C)C4=CC(=O)CC[C@]4(C)[C@H]3CC[C@@]21C [3:23, 17α-[4-(3-(N,N-bis(2-chloroethyl)amino)-4-methylbenzoyloxy)butanoyloxy]-6-methylpregna-4,6-diene-3,20-dione], the antitumour activity is reported as “exhibit antitumour activity”.
CC(=O)[C@@]1(OC(=O)CNC(=O)c2ccc(C)c(N(CC(C)Cl)CC(C)Cl)c2)CC[C@H]2[C@@H]3C[C@H](C)C4=CC(=O)CC[C@]4(C)[C@H]3CC[C@@]21C (stereo partly drawn) [4:2, 17α-/3-(N,N-bis(2-chloropropyl)amino)-4-methylbenzoylaminoacetoxy/-6α-methylpregn-4-ene-3,20-dione] was tested, and the antitumour activity was “exhibit antitumour activity”.
For CC(=O)[C@@]1(OC(=O)COC(=O)Oc2ccc(N(CCCl)CCCl)cc2)[C@H](C)C[C@H]2[C@@H]3C=C(Cl)C4=CC(=O)CC[C@]4(C)[C@H]3CC[C@@]21C [5:3, 6-chloro-17α-/4-(N,N-bis(2-chloroethyl)amino)phenoxycarbonyloxyacetoxy/-16α-methylpregna-4,6-diene-3,20-dione], the antitumour activity was “exhibit antitumour activity”.
In the case of CC(=O)[C@@]1(OC(=O)COC(=O)c2ccc(Cl)c(N(CCCl)CCCl)c2)CC[C@H]2[C@@H]3C[C@H](F)C4=CC(=O)CC[C@]4(C)[C@H]3CC[C@@]21C [3:25, 17α-[4-chloro-3-(N,N-bis(2-chloroethyl)amino)benzoyloxyacetoxy]-6α-fluoropregn-4-ene-3,20-dione], the antitumour activity is reported as “exhibit antitumour activity”.

What follows are compounds tested on Ehrlich ascites tumour, ELD hyperdiploid (assay: Ehrlich ascites tumour, ELD hyperdiploid (46 chromosomes), growth inhibition in mice). Details: one i.p. injection, result in words.
Assay type: in vivo, SPF NMRI mice
Text: as §1
Ehrlich ascites tumour, ELD hyperdiploid
Experimental animals: SPF NMRI mice.
Tumour implant: 2 × 10^6 tumour cells i.p.
as §2, §3
Evaluation: Weight of tumours of test animals compared with
those of control animals.
With CC(=O)[C@@]1(OC(=O)CCCNC(=O)c2ccc(C)c(N(CCCl)CCCl)c2)CC[C@H]2[C@@H]3CCC4=CC(=O)CC[C@]4(C)[C@H]3CC[C@@]21C [6:4] the antitumour activity was “exhibit antitumour activity”.
CC(=O)[C@@]1(OC(=O)C(C)OC(=O)/C=C/c2ccccc2N(CCCl)CCCl)CC[C@H]2[C@@H]3C=C(C)C4=CC(=O)CC[C@]4(C)[C@H]3CC[C@@]21C (stereo partly drawn) [3:9, 17α-/2-((2E)-3-(2-(N,N-bis(2-chloroethyl)amino)phenyl)propenoyloxy)propanoyloxy/-6-methylpregna-4,6-diene-3,20-dione] was tested, and the antitumour activity was “exhibit antitumour activity”.
With CC(=O)[C@@]1(OC(=O)C(C)OC(=O)CCCCc2ccc(N(CCCl)CCCl)cc2)CC[C@H]2[C@@H]3C=C(Cl)C4=CC(=O)CC[C@]4(C)[C@H]3CC[C@@]21C (stereo partly drawn) [3:8, 6-chloro-17α-/2-(5-(4-(N,N-bis(2-chloroethyl)amino)phenyl)pentanoyloxy)propanoyloxy/pregna-4,6-diene-3,20-dione] the antitumour activity was “exhibit antitumour activity”.
